Species: Rattus norvegicus
Experiment: DrugMatrix - Regimen: Daily Repeat
Format: toxicity, organism-based, Sprague-Dawley
Design: regimen Daily Repeat, gender Male, age 6-8 weeks
Settings: in vivo, po, route oral GAVAGE, vehicle 100 % WATER; for ABSOLUTE BASOPHIL / ABSOLUTE EOSINOPHIL / ABSOLUTE LYMPHOCYTE / ABSOLUTE MONOCYTE / ABSOLUTE SEGMENTED NEUTROPHIL / BASOPHIL / EOSINOPHIL / ERYTHROCYTE COUNT / HEMATOCRIT / HEMOGLOBIN / LEUKOCYTE COUNT / LYMPHOCYTE / MEAN CORPUSCULAR HEMOGLOBIN / MEAN CORPUSCULAR HEMOGLOBIN CONCENTRATION / MEAN CORPUSCULAR VOLUME / MONOCYTE / NEUTROPHIL / NUCLEATED RED BLOOD CELLS / PLATELET COUNT: tissue Blood; for ALANINE AMINOTRANSFERASE / ALBUMIN / ALKALINE PHOSPHATASE / ASPARTATE AMINOTRANSFERASE / BLOOD UREA NITROGEN / CARBON DIOXIDE / CHLORIDE / CHOLESTEROL / CREATINE PHOSPHOKINASE / CREATININE / GLUCOSE / LACTATE DEHYDROGENASE / LIPASE / PHOSPHORUS / POTASSIUM / SODIUM / TOTAL BILIRUBIN / TOTAL PROTEIN / URIC ACID: tissue Plasma
[1] = 8 mg/kg, 72 h, dose level Low, time 3 day
[2] = 8 mg/kg, 120 h, dose level Low, time 5 day
[3] = 78 mg/kg, 72 h, dose level High, time 3 day
[4] = 78 mg/kg, 120 h, dose level High, time 5 day

NNc1ccccc1 [PHENYLHYDRAZINE]
ABSOLUTE BASOPHIL [1]: 0 CELLS/uL
ABSOLUTE EOSINOPHIL [1]: 0 CELLS/uL
ABSOLUTE LYMPHOCYTE [1]: 13454.67 CELLS/uL
ABSOLUTE MONOCYTE [1]: 235.67 CELLS/uL
ABSOLUTE SEGMENTED NEUTROPHIL [1]: 1043 CELLS/uL
BASOPHIL [1]: 0%
EOSINOPHIL [1]: 0%
ERYTHROCYTE COUNT [1]: 5.23 x10E6/uL
HEMATOCRIT [1]: 34.17%
HEMOGLOBIN [1]: 13.63 G/DL
LEUKOCYTE COUNT [1]: 14.73 x10E3/uL
LYMPHOCYTE [1]: 91.33%
MEAN CORPUSCULAR HEMOGLOBIN [1]: 26.1 pg
MEAN CORPUSCULAR HEMOGLOBIN CONCENTRATION [1]: 39.93 G/DL
MEAN CORPUSCULAR VOLUME [1]: 65.33 fL
MONOCYTE [1]: 1.33%
NEUTROPHIL [1]: 7.33%
NUCLEATED RED BLOOD CELLS [1]: 0 /100WBC
PLATELET COUNT [1]: 994.33 x10E3/uL
ALANINE AMINOTRANSFERASE [1]: 53 u/L
ALBUMIN [1]: 4.17 G/DL
ALKALINE PHOSPHATASE [1]: 388 u/L
ASPARTATE AMINOTRANSFERASE [1]: 115 u/L
BLOOD UREA NITROGEN [1]: 15.33 mg/dL
CARBON DIOXIDE [1]: 21.33 mmol/L
CHLORIDE [1]: 102.67 MEQ/L
CHOLESTEROL [1]: 102.33 mg/dL
CREATINE PHOSPHOKINASE [1]: 1080.67 u/L
CREATININE [1]: 0.13 mg/dL
GLUCOSE [1]: 177 mg/dL
LACTATE DEHYDROGENASE [1]: 308.67 u/L
LIPASE [1]: 9.33 u/L
PHOSPHORUS [1]: 14.53 mg/dL
POTASSIUM [1]: 6.82 MEQ/L
SODIUM [1]: 146.1 MEQ/L
TOTAL BILIRUBIN [1]: 0.17 mg/dL
TOTAL PROTEIN [1]: 5.87 G/DL
URIC ACID [1]: 2.1 mg/dL
ABSOLUTE BASOPHIL [2]: 0 CELLS/uL
ABSOLUTE EOSINOPHIL [2]: 0 CELLS/uL
ABSOLUTE LYMPHOCYTE [2]: 16277.67 CELLS/uL
ABSOLUTE MONOCYTE [2]: 115 CELLS/uL
ABSOLUTE SEGMENTED NEUTROPHIL [2]: 974 CELLS/uL
BASOPHIL [2]: 0%
EOSINOPHIL [2]: 0%
ERYTHROCYTE COUNT [2]: 5.53 x10E6/uL
HEMATOCRIT [2]: 35.4%
HEMOGLOBIN [2]: 14.27 G/DL
LEUKOCYTE COUNT [2]: 17.37 x10E3/uL
LYMPHOCYTE [2]: 93.67%
MEAN CORPUSCULAR HEMOGLOBIN [2]: 25.8 pg
MEAN CORPUSCULAR HEMOGLOBIN CONCENTRATION [2]: 40.3 G/DL
MEAN CORPUSCULAR VOLUME [2]: 64.07 fL
MONOCYTE [2]: 0.67%
NEUTROPHIL [2]: 5.67%
NUCLEATED RED BLOOD CELLS [2]: 0 /100WBC
PLATELET COUNT [2]: 1250.67 x10E3/uL
ALANINE AMINOTRANSFERASE [2]: 46.67 u/L
ALBUMIN [2]: 4.1 G/DL
ALKALINE PHOSPHATASE [2]: 440.67 u/L
ASPARTATE AMINOTRANSFERASE [2]: 81.67 u/L
BLOOD UREA NITROGEN [2]: 15.33 mg/dL
CARBON DIOXIDE [2]: 26.33 mmol/L
CHLORIDE [2]: 102 MEQ/L
CHOLESTEROL [2]: 63 mg/dL
CREATINE PHOSPHOKINASE [2]: 289 u/L
CREATININE [2]: 0.12 mg/dL
GLUCOSE [2]: 147.67 mg/dL
LACTATE DEHYDROGENASE [2]: 310.67 u/L
LIPASE [2]: 9 u/L
PHOSPHORUS [2]: 13.93 mg/dL
POTASSIUM [2]: 6.84 MEQ/L
SODIUM [2]: 144.13 MEQ/L
TOTAL BILIRUBIN [2]: 0.17 mg/dL
TOTAL PROTEIN [2]: 5.83 G/DL
URIC ACID [2]: 1.23 mg/dL
ABSOLUTE BASOPHIL [3]: 0 CELLS/uL
ABSOLUTE EOSINOPHIL [3]: 0 CELLS/uL
ABSOLUTE LYMPHOCYTE [3]: 24784.33 CELLS/uL
ABSOLUTE MONOCYTE [3]: 97 CELLS/uL
ABSOLUTE SEGMENTED NEUTROPHIL [3]: 9152 CELLS/uL
BASOPHIL [3]: 0%
EOSINOPHIL [3]: 0%
ERYTHROCYTE COUNT [3]: 3.43 x10E6/uL
HEMATOCRIT [3]: 24.43%
LEUKOCYTE COUNT [3]: 34.03 x10E3/uL
LYMPHOCYTE [3]: 73%
MEAN CORPUSCULAR VOLUME [3]: 71.33 fL
MONOCYTE [3]: 0.33%
NEUTROPHIL [3]: 26.67%
NUCLEATED RED BLOOD CELLS [3]: 21.67 /100WBC
PLATELET COUNT [3]: 1624.67 x10E3/uL
ALANINE AMINOTRANSFERASE [3]: 46 u/L
ALBUMIN [3]: 4.27 G/DL
ALKALINE PHOSPHATASE [3]: 266 u/L
ASPARTATE AMINOTRANSFERASE [3]: 107.67 u/L
BLOOD UREA NITROGEN [3]: 15 mg/dL
CARBON DIOXIDE [3]: 23.67 mmol/L
CHLORIDE [3]: 102.33 MEQ/L
CHOLESTEROL [3]: 53.33 mg/dL
CREATINE PHOSPHOKINASE [3]: 217.33 u/L
CREATININE [3]: 0.11 mg/dL
GLUCOSE [3]: 182.33 mg/dL
LACTATE DEHYDROGENASE [3]: 512.67 u/L
LIPASE [3]: 9.33 u/L
PHOSPHORUS [3]: 12.13 mg/dL
POTASSIUM [3]: 7.33 MEQ/L
SODIUM [3]: 141.1 MEQ/L
TOTAL BILIRUBIN [3]: 0.9 mg/dL
TOTAL PROTEIN [3]: 5.7 G/DL
URIC ACID [3]: 2 mg/dL
ABSOLUTE BASOPHIL [4]: 0 CELLS/uL
ABSOLUTE EOSINOPHIL [4]: 0 CELLS/uL
ABSOLUTE LYMPHOCYTE [4]: 25256 CELLS/uL
ABSOLUTE MONOCYTE [4]: 656 CELLS/uL
ABSOLUTE SEGMENTED NEUTROPHIL [4]: 6888 CELLS/uL
BASOPHIL [4]: 0%
EOSINOPHIL [4]: 0%
ERYTHROCYTE COUNT [4]: 2.84 x10E6/uL
HEMATOCRIT [4]: 25.3%
LEUKOCYTE COUNT [4]: 32.8 x10E3/uL
LYMPHOCYTE [4]: 77%
MEAN CORPUSCULAR VOLUME [4]: 89.1 fL
MONOCYTE [4]: 2%
NEUTROPHIL [4]: 21%
NUCLEATED RED BLOOD CELLS [4]: 31 /100WBC
PLATELET COUNT [4]: 1632 x10E3/uL
ALANINE AMINOTRANSFERASE [4]: 84 u/L
ALBUMIN [4]: 4.8 G/DL
ALKALINE PHOSPHATASE [4]: 311 u/L
ASPARTATE AMINOTRANSFERASE [4]: 313 u/L
BLOOD UREA NITROGEN [4]: 28 mg/dL
CARBON DIOXIDE [4]: 17 mmol/L
CHLORIDE [4]: 106 MEQ/L
CHOLESTEROL [4]: 81 mg/dL
CREATINE PHOSPHOKINASE [4]: 196 u/L
CREATININE [4]: 0.1 mg/dL
GLUCOSE [4]: 129 mg/dL
LACTATE DEHYDROGENASE [4]: 1486 u/L
LIPASE [4]: 10 u/L
PHOSPHORUS [4]: 11.1 mg/dL
POTASSIUM [4]: 6.59 MEQ/L
SODIUM [4]: 143.3 MEQ/L
TOTAL BILIRUBIN [4]: 2.2 mg/dL
TOTAL PROTEIN [4]: 6.2 G/DL
URIC ACID [4]: 2 mg/dL
